ChEMBL document CHEMBL4184331 (J Med Chem, 2018)
Activity calls are given as the source filed them. The rule behind the calls is not given here.

How the values were obtained:
[1] = biological target: T1, Glucocorticoid receptor (Homo sapiens, UniProt P04150)
T1 sequence (P04150 whole entry): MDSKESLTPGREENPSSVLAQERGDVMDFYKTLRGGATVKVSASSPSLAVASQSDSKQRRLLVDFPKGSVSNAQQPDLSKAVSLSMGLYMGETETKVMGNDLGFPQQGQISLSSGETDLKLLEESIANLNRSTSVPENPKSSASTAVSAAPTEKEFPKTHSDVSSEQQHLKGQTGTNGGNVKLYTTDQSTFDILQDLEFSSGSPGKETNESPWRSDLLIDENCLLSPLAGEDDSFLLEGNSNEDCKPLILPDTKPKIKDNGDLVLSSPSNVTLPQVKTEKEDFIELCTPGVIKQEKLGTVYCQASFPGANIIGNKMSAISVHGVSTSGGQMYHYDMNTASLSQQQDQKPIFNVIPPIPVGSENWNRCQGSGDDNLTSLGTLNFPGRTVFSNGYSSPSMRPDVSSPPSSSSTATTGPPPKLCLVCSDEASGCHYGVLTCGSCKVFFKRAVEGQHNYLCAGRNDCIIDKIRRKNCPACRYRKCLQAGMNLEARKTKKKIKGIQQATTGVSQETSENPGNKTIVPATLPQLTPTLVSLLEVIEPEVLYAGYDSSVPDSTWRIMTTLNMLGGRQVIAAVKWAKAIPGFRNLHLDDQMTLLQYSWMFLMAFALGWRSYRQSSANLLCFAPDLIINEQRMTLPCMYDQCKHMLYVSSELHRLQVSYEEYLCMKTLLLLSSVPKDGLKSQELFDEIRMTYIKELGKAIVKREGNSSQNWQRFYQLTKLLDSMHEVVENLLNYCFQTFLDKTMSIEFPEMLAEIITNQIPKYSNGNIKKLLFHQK
Description: Induction of nuclear translocation of human recombinant ProLabel-tagged glucocorticoid receptor expressed in CHO-K1 cells after 3 hrs by luminescence method

[2] = test system: Rattus norvegicus; experiment: Antiinflammatory activity in LPS-induced Sprague-Dawley rat neutrophilic lung inflammation model assessed as inhibition of neutrophilic infiltration in bronchoalveolar lavage at 0.03 mg/kg, it preincubated for 1 hr followed by LPS challenge measured after 4 hrs relative to control; assay type: functional
[3] = species on record: Rattus norvegicus; experiment: Antiinflammatory activity in LPS-induced Sprague-Dawley rat neutrophilic lung inflammation model assessed as inhibition of neutrophilic infiltration in bronchoalveolar lavage at ID80, it preincubated for 24 hrs followed by LPS challenge measured after 4 hrs relative to control; assay type: functional
[4] = AUClast in Sprague-Dawley rat lung at 1 umol/kg, it by HPLC-MS/MS method; assay type: ADME, tissue-based; settings: in vivo, inhaled_or_intranasal
[5] = MRTlast in Sprague-Dawley rat plasma at 1 umol/kg, it by HPLC-MS/MS method; assay type: ADME, cell-free; settings: inhaled or intranasal
[6] = Cmax in Sprague-Dawley rat plasma at 1 umol/kg, it by HPLC-MS/MS method; assay type: ADME, cell-free; parameters: dose 1 umol/kg; settings: inhaled or intranasal
[7] = AUClast in Sprague-Dawley rat plasma at 1 umol/kg, it by HPLC-MS/MS method; assay type: ADME, cell-free; settings: inhaled or intranasal
[8] = test system: Rattus norvegicus; experiment: Antiinflammatory activity in LPS-induced Sprague-Dawley rat neutrophilic lung inflammation model assessed as inhibition of neutrophilic infiltration in bronchoalveolar lavage at 0.1 mg/kg, it preincubated for 1 hr followed by LPS challenge measured after 4 hrs relative to control; assay type: functional
[9] = biological target: T1, Glucocorticoid receptor; experiment: biochemical
Description: Displacement of [3H]dexamethasone from human recombinant glucocorticoid receptor expressed in insect cells after 24 hrs by scintillation proximity assay

[10] = biological target: T2, Mineralocorticoid receptor (Homo sapiens, UniProt P08235)
T2 sequence (P08235 whole entry): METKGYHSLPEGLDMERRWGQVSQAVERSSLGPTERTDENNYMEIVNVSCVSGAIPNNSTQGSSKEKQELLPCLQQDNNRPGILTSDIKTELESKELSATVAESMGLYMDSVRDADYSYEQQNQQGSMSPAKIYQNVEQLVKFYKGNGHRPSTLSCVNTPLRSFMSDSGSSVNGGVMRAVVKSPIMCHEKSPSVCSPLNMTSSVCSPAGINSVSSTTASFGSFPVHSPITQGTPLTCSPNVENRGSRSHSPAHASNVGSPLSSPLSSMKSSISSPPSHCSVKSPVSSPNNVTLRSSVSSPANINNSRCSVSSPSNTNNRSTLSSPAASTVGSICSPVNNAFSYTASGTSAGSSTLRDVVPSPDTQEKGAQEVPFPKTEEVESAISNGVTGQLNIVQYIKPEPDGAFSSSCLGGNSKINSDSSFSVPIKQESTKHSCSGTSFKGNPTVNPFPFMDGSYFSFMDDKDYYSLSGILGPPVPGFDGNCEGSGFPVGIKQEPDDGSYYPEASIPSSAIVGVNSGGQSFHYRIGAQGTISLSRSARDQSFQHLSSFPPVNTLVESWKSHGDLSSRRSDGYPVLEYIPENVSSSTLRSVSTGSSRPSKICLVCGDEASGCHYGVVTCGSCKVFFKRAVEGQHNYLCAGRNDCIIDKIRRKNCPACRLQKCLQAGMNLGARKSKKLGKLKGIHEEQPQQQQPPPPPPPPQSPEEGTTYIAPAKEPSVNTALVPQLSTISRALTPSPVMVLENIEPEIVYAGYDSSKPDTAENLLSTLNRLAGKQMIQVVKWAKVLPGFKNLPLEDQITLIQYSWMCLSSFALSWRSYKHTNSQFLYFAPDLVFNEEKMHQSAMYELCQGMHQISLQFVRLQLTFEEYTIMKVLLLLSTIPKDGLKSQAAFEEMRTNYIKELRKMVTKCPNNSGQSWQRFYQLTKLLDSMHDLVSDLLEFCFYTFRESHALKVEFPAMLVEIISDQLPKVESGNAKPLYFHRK
Description: Induction of nuclear translocation of human recombinant ProLabel-tagged mineralocorticoid receptor expressed in CHO-K1 cells after 3 hrs by luminescence method

[11] = test system: RAW264.7; experiment: cells; settings: Mus musculus
Description: Antiinflammatory activity in mouse RAW264.7 cells assessed as inhibition of LPS-induced nitric oxide release preincubated for 15 mins followed by LPS challenge measured after 18 hrs by Griess assay

[12] = physchem
Description: Dissociation constant, pKa of the compound

[13] = MRTlast in Sprague-Dawley rat lung at 1 umol/kg, it by HPLC-MS/MS method; assay type: ADME, tissue-based; settings: inhaled or intranasal
[14] = test system: Rattus norvegicus; experiment: Antiinflammatory activity in LPS-induced Sprague-Dawley rat neutrophilic lung inflammation model assessed as inhibition of neutrophilic infiltration in bronchoalveolar lavage at 0.3 mg/kg, it preincubated for 1 hr followed by LPS challenge measured after 4 hrs relative to control; assay type: functional
[15] = test system: Rattus norvegicus; experiment: Antiinflammatory activity in LPS-induced Sprague-Dawley rat neutrophilic lung inflammation model assessed as inhibition of neutrophilic infiltration in bronchoalveolar lavage at 1 mg/kg, it preincubated for 1 hr followed by LPS challenge measured after 4 hrs relative to control; assay type: functional
[16] = test system: Rattus norvegicus; experiment: Antiinflammatory activity in it dosed LPS-induced Sprague-Dawley rat neutrophilic lung inflammation model assessed as inhibition of neutrophilic infiltration in bronchoalveolar lavage preincubated for 1 hr followed by LPS challenge measured after 4 hrs; assay type: functional; settings: read-out: ID50 (the source's name)
[17] = Cmax in Sprague-Dawley rat lung at 1 umol/kg, it by HPLC-MS/MS method; assay type: ADME, tissue-based; parameters: dose 1 umol/kg; settings: in vivo, inhaled_or_intranasal
[18] = test system: Rattus norvegicus; experiment: Antiinflammatory activity in LPS-induced Sprague-Dawley rat neutrophilic lung inflammation model assessed as inhibition of neutrophilic infiltration in bronchoalveolar lavage at 3 mg/kg, it preincubated for 1 hr followed by LPS challenge measured after 4 hrs relative to control; assay type: functional
[19] = biological target: T3, Glucocorticoid receptor (Homo sapiens) (UniProt P04150); experiment: Displacement of [3H]dexamethasone from human recombinant glucocorticoid receptor expressed in insect cells at 1000 nM after 24 hrs by scintillation proximity assay relative to control
T3 sequence (whole entry): T1 sequence (P04150 whole entry)

SMILES	EC50 [1]	inhibition in vivo at 0.03 mg/kg [2]	inhibition (INH) [3]	AUClast [4]	MRT last [5]	Cmax [6]	AUC(0-t) [7]	inhibition in vivo at 0.1 mg/kg [8]	Ki [9]	EC50 [10]	IC50 [11]	pKa [12]	MRT last [13]	inhibition in vivo at 0.3 mg/kg [14]	inhibition in vivo at 1 mg/kg [15]	ED50 [16]	Cmax [17]	inhibition [3]	inhibition in vivo at 3 mg/kg [18]	inhibition [19]
C[C@]12C=CC(=O)C=C1[C@@H](F)C[C@H]1[C@@H]3C[C@H]4CN(Cc5cccc(Cl)c5)C[C@@]4(C(=O)CO)[C@@]3(C)C[C@H](O)[C@@]12F	1.8 nM	47%	>80%	871.2 nmol·h/g	1.4 h	110 nM	0.118 µM·h	56%	0.76 nM	2.5 nM	0.08 nM	6.64	16.7 h	64%	92%	0.097 µmol/kg	64.26 nmol/g			
CCCC1O[C@@H]2C[C@H]3[C@@H]4CCC5=CC(=O)C=C[C@]5(C)[C@H]4[C@@H](O)C[C@]3(C)[C@]2(C(=O)CO)O1 (stereo not given in full) [BUDESONIDE]				110.03 nmol·h/g	1.2 h	127 nM	11.6 µM·h	29%			0.82 nM		0.71 h	45%	73%	0.34 µmol/kg	18.67 nmol/g	inactive	84%	
C[C@@H]1C[C@H]2[C@@H]3C[C@H](F)C4=CC(=O)C=C[C@]4(C)[C@@]3(F)[C@@H](O)C[C@]2(C)[C@@]1(OC(=O)c1ccco1)C(=O)SCF [FLUTICASONE FUROATE]			>80%	1049 nmol·h/g	1.4 h	45 nM	0.05 µM·h				0.1 nM		9.5 h				77.1 nmol/g			
C[C@]12C=CC(=O)C=C1[C@@H](F)C[C@H]1[C@@H]3C[C@H]4CNC[C@@]4(C(=O)CO)[C@@]3(C)C[C@H](O)[C@@]12F												8.82								40%
